The values that follow come from patent US7491501B2, “Methods for identifying modulators of intracellular aggregate formation” (Auburn University, priority 2003, dated 2009).

This assay concerns p62 aggregates in HEK cells. Briefly: p62 aggregate formation by confocal/fluorescence microscopy in transfected HEK cells. It is filed as cell-based, Human. How it is done:
Immunofluorescence staining—All steps were done at room temperature unless stated otherwise. The inclusion bodies were placed on poly-L-lysine coated 12 well slides (Cel-line/Erie Scientific Co., Portmouth, N.H.) and let partially dry. Inclusion bodies on the slides were fixed for 10 min in 3% paraformaldehyde (Electron Microscopy Sciences, Fort Washington, Pa.) and permeabilized with 0.1% Triton X-100 in PBS for 15 minutes. The inclusion bodies were incubated in blocking buffer (3% non fat dry milk in PBS) for 1 h, prior to incubation with primary antibodies at 4° C. overnight. After washing with PBS, the secondary antibody (Molecular Probes Inc., Eugene, Oreg.) in blocking buffer was applied for 1 h. After extensive washing in PBS, the samples were mounted using Vectashield (Vector Laboratories Inc., Burlingame, Calif.). The cells were fixed with 3% paraformaldehyde and processed similar to that of inclusion staining.
Cells were incubated with rabbit anti-myc IgG or mouse anti-HA IgG and labeled with Texas Red-conjugated anti-rabbit antibodies (red) or Oregon Green-conjugated anti-mouse antibodies (green), respectively. Merged images with overlapping immunoreactivity are shown in yellow. Note that cells expressing p62 lacking its UBA domain (p62ΔUBA) fail to form aggregates or to colocalize with ubiquitin. All experiments were replicated three independent times with similar results. Small aggregates of p62 colocalized with ubiquitin which was dependant upon the presence of a UBA domain but not the N-terminal portion of p62. Aggregation may impair the proteasome or, alternatively, impaired proteasome activity may seed aggregates. Alternatively, impairment of the proteasome may enhance the formation of p62 aggregates containing polyubiquitin.
In summary, through its UBA domain, p62 Interacts with polyubiquitinated substrates, and the UBA domain is necessary for aggregate formation.
Since TRAF6 localized to the large aggregates along with polyubiquitin (FIG. 2B), these aggregates may represent the failed attempt of the cell to rid itself of TRAF6-K63-polyubiquitinated substrates sequestered through interaction with the UBA domain. […] Altogether, these findings reveal that p62 binds proteins with K63 chains through its UBA domain and that p62 aggregates sequester TRAF6 as well as K63-polyubiquitinated substrates.
To further determine if the coassociation of tau-p62-TRAF6 and UbcH7 could be recapitulated in vitro, a cotransfection approach was undertaken. […] HEK cells were transfected with GFP-p62 followed by treatment or not with Aβ1-42 and Aβ42-1 peptides. […] This is consistent with the observation that microtubule dependent transport is important for the formation of p62 inclusions as assessed by treatment of the cells with nocodazole, a microtubule disrupting agent (9).

With “AAVALLPAVLLALLAP-ESASGPSEDPSVNFLK (AAVALLPAVLLALLAPESASGPSEDPSVNFLK; artificial sequence for cell permeable peptide) [TRAF6 peptide]”, the “reduction in the formation of large aggregates” value (pretreatment with inhibitory dose of peptide prior to ALLN, GFP-p62 HEK cells) was found to be 60%. For the same substance, the “effect on size of the p62 aggregates” value (pretreatment with peptide prior to ALLN (FIG. 2D), control peptide data not shown) is “decrease in the size of the p62 aggregates”.
